Measured values from ChEMBL document CHEMBL1136370, “Structure-activity relationship on human serum paraoxonase (PON1) using substrate analogues and inhibitors” (Bioorg Med Chem Lett, 2003).

What was measured:
[1] = target: T1, Serum paraoxonase/arylesterase 1 (Homo sapiens, UniProt P27169); assay: Inhibitory activity against human serum paraoxonase (PON1); Not active
[2] = system: PON1; assay: Time taken for 50% to be consumed by serum PON1 was determined; assay type: ADME; conditions: human
[3] = target: T1, Serum paraoxonase/arylesterase 1; assay: Inhibitory activity against human serum paraoxonase (PON1)
[4] = Time taken for 50% to be consumed by serum PON1; NH is Not hydrolysed; assay type: ADME; conditions: human

T1 sequence (P27169 whole entry): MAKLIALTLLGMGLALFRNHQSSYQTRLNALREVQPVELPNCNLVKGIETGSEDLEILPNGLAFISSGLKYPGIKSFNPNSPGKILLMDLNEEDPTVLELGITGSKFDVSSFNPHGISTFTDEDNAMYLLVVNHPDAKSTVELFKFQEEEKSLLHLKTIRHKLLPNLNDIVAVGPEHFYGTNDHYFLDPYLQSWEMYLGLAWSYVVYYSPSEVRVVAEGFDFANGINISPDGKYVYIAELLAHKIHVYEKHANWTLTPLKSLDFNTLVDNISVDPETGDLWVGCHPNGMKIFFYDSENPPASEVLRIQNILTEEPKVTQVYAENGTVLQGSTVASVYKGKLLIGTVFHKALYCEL

| Compound | IC50 [1] | half-life [2] [min] | IC50 [3] [mM] | T1/2 [4] |
| --- | --- | --- | --- | --- |
| CC(=O)Oc1ccc(N)cc1 | Not Active | 20 | – | – |
| COc1ccc(OC(C)=O)cc1 | Not Active | 20 | – | – |
| CCOP(=O)(OCC)Oc1ccc(N)cc1 | – | – | 1.28 | Not hydrolysed |
| CC(=O)Oc1ccc([N+](=O)[O-])cc1 [4-NITROPHENYL ACETATE] | Not Active | 3.5 | – | – |
| CC(=O)Oc1ccccc1 [ACETIC ACID PHENYL ESTER] | Not Active | 1.5 | – | – |
| CCOP(=O)(OCC)Oc1ccc([N+](=O)[O-])cc1 [PARAOXON] | Not Active | 1460 | – | – |
| O=P(O)(O)Oc1ccccc1 [PHENYL DIHYDROGEN PHOSPHATE] | – | – | 3.25 | Not hydrolysed |
| CCOP(=O)(OCC)Oc1ccccc1 [PHOSPHORIC ACID DIETHYL ESTER PHENYL ESTER] | – | – | 3.27 | Not hydrolysed |
| O=[N+]([O-])c1ccc(OP(=O)(O)O)cc1 [p-NITROPHENYLPHOSPHATE] | – | – | 18.5 | Not hydrolysed |
